“And” between values parts separate entries of the source, which are not always exact repeats. Equal values may be shown once.
Columns and labels:
[1] = target: T1, TAK1 (Homo sapiens, UniProt O43318); test: KINOMEscan active-site competitive binding assay; conditions: slash = two separate measurements
T1 construct: purchased DiscoveRx
T1 sequence (O43318 1-606): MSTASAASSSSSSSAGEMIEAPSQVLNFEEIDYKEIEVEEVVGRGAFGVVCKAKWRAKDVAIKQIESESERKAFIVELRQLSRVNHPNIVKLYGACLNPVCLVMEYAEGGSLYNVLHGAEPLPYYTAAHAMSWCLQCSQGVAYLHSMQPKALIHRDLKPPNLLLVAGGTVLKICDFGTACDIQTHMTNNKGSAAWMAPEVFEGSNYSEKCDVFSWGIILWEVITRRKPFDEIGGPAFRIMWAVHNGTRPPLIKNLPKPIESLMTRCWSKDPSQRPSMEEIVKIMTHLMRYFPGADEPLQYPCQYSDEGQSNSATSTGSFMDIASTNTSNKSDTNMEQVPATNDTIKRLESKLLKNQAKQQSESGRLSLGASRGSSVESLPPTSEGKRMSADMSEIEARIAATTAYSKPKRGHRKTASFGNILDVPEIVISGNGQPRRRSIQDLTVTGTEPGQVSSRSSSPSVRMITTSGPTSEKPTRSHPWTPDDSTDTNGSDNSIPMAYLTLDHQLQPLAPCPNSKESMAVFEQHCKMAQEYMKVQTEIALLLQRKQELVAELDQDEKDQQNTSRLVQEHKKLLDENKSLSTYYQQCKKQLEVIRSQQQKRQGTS

[2] = target: T2, CDK11 (Homo sapiens, UniProt Q9BWU1); test: KINOMEscan active-site competitive binding assay; conditions: slash = two separate measurements
T2 construct: purchased DiscoveRx (KINOMEscan service)
T2 sequence (Q9BWU1 whole entry): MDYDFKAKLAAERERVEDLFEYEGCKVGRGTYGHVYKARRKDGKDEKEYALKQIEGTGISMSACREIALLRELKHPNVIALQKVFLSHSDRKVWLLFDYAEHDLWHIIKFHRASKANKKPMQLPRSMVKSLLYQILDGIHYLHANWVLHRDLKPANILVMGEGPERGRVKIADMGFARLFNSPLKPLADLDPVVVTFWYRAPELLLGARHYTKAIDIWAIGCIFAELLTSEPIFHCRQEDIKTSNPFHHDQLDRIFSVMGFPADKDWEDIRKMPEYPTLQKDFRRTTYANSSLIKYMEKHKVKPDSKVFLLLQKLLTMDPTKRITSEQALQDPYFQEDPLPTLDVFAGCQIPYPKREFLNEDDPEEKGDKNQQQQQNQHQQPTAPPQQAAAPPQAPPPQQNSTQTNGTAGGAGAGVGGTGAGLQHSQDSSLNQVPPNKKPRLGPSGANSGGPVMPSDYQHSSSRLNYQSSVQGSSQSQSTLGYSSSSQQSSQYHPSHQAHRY

[3] = Plasma protein binding in vitro (Transil), human plasma; type: in vitro ADME; conditions: for Proportion of protein‐bound drug / Major plasma protein to which the compound was bound / Unbound fraction, fold lower than that of regorafenib: human plasma; for Major plasma protein to which the compound was bound: data not shown; for Unbound fraction, fold lower in human than in murine plasma: human versus murine plasma
Description: (§1) A radioactivity analysis was performed by liquid scintillation counting. […] All compounds were tested for stability at the incubation conditions used.

[4] = target: T3, TNNI3K (Homo sapiens, UniProt Q59H18); test: KINOMEscan active-site competitive binding assay; conditions: slash = two separate measurements
T3 construct: purchased DiscoveRx
T3 sequence (Q59H18 1-835): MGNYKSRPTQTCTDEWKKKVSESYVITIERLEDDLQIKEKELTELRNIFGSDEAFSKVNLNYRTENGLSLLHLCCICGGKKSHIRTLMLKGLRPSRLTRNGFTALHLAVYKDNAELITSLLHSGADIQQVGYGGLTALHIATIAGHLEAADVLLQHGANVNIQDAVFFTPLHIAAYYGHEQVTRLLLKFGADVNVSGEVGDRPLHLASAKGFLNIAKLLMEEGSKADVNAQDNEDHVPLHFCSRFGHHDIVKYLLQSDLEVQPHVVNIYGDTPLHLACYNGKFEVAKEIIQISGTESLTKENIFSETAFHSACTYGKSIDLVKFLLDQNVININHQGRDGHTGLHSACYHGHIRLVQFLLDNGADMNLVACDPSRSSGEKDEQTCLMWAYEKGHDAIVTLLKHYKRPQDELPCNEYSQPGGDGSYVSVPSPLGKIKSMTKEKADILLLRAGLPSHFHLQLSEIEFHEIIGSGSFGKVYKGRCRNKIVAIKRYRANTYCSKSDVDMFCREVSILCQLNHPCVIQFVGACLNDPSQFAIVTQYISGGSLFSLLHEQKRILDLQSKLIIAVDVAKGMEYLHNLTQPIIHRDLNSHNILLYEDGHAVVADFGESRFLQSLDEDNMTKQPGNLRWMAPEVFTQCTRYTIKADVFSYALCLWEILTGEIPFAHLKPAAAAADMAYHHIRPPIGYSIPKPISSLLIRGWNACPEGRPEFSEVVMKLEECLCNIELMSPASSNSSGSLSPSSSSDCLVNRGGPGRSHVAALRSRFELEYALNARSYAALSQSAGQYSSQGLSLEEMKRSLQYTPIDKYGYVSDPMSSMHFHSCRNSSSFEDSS

[5] = target: T4, TIE-1 (Homo sapiens, UniProt P35590); test: KINOMEscan active-site competitive binding assay; conditions: slash = two separate measurements
T4 construct: purchased DiscoveRx
T4 sequence (P35590 22-1138): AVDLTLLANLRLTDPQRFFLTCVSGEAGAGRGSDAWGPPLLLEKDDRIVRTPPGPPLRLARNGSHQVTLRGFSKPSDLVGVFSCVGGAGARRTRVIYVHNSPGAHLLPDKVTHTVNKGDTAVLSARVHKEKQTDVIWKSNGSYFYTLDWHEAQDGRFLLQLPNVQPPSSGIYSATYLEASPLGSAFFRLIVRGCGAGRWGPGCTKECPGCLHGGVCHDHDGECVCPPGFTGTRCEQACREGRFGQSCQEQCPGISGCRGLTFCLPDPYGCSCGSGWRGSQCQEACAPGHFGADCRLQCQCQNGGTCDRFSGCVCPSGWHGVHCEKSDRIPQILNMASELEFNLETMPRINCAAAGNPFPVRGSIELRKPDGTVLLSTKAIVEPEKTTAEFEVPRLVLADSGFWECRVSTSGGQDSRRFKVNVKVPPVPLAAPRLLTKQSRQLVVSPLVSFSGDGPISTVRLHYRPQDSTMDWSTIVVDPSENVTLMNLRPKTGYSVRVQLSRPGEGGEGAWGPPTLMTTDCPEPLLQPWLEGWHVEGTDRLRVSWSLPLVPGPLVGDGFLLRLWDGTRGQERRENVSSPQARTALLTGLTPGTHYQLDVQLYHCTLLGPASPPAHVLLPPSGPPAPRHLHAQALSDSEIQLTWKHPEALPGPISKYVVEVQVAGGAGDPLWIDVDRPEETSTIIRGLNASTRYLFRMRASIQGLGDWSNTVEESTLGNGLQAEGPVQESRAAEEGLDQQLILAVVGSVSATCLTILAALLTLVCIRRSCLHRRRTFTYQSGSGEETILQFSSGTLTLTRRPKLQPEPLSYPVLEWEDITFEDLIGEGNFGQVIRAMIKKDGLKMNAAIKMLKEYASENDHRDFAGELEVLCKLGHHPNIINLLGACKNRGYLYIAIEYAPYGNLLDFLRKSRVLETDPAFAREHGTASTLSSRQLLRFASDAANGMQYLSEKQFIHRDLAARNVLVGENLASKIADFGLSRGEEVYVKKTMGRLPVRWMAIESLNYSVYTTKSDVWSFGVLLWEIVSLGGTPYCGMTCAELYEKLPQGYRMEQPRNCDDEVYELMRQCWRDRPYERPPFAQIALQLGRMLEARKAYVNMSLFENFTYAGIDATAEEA

[6] = target: T5, TRKC (Homo sapiens, UniProt Q16288); test: KINOMEscan active-site competitive binding assay; conditions: slash = two separate measurements
T5 construct: purchased DiscoveRx
T5 sequence (Q16288 32-839): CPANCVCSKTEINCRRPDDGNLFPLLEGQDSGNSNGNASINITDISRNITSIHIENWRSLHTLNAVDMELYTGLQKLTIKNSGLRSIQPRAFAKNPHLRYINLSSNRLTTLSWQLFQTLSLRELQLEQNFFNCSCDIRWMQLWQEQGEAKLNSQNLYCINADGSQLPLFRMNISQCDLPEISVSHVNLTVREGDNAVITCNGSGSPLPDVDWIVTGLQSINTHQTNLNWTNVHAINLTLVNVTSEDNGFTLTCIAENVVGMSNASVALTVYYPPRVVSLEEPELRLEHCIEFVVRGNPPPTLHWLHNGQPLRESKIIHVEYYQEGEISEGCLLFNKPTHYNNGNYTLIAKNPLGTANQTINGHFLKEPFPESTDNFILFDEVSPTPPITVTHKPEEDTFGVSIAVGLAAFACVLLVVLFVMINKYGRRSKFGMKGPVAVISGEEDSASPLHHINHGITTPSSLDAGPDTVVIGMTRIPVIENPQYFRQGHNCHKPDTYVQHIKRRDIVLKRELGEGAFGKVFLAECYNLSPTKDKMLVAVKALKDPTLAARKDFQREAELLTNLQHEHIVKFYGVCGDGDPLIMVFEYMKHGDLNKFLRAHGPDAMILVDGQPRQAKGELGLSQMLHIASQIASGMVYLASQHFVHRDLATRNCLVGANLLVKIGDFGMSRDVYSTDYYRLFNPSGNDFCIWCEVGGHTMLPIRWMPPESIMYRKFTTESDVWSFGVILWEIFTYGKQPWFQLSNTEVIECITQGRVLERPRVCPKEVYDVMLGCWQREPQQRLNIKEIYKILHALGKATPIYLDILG

[7] = target: T6, MKNK2 (Homo sapiens, UniProt Q9HBH9); test: KINOMEscan active-site competitive binding assay; conditions: slash = two separate measurements
T6 construct: purchased DiscoveRx (KINOMEscan service)
T6 sequence (Q9HBH9 whole entry): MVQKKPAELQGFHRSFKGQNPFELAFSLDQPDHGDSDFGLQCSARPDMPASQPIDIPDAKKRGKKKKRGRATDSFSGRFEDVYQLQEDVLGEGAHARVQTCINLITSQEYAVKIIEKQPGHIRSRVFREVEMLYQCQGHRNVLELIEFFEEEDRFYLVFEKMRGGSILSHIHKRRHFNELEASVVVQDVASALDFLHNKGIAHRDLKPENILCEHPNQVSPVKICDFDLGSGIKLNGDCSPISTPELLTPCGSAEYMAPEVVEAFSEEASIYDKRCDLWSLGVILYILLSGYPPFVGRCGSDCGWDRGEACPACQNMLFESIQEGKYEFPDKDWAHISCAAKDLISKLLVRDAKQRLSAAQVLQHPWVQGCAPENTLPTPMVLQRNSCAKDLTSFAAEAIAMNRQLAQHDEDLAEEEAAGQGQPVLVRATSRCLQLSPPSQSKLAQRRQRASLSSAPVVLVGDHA

[8] = target: T7, MAP4K4 (Homo sapiens, UniProt O95819); test: KINOMEscan active-site competitive binding assay; conditions: slash = two separate measurements
T7 construct: purchased DiscoveRx (KINOMEscan service)
T7 sequence (O95819 whole entry): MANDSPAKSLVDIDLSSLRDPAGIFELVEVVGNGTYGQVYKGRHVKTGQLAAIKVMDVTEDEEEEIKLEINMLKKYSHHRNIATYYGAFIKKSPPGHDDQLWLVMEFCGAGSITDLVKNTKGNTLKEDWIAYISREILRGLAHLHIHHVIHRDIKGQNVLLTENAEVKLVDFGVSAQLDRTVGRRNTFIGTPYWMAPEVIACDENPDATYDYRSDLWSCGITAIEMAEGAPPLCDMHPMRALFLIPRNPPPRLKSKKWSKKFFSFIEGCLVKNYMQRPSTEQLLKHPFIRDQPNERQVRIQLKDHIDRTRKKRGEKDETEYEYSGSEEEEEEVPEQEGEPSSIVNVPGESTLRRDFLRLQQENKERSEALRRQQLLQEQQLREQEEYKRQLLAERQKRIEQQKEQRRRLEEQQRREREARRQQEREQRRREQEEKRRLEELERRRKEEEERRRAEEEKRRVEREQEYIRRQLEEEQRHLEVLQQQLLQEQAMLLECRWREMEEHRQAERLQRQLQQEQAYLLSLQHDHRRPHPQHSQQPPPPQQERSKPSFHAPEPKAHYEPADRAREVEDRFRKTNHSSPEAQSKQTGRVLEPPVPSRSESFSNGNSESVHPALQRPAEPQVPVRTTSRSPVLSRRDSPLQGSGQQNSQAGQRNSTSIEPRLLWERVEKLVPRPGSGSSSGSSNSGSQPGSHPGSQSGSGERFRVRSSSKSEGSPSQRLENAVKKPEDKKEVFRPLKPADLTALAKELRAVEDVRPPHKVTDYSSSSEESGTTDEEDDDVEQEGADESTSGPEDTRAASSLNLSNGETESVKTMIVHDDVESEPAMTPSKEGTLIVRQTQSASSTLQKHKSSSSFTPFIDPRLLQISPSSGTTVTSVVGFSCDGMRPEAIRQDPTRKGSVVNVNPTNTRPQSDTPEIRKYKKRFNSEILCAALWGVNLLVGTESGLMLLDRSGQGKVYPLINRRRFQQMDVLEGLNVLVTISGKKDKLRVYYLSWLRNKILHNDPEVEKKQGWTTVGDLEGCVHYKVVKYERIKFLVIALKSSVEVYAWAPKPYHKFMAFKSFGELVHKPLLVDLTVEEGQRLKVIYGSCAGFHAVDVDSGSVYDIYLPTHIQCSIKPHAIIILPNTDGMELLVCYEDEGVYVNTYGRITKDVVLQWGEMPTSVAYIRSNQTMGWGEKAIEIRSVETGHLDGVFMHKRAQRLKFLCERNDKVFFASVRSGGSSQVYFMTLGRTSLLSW

[9] = Calculated free drug concentration in human plasma; type: in vivo
[10] = target: T8, FRK (Homo sapiens, UniProt P42685); test: KINOMEscan active-site competitive binding assay; conditions: slash = two separate measurements
T8 construct: purchased DiscoveRx (KINOMEscan service)
T8 sequence (P42685 whole entry): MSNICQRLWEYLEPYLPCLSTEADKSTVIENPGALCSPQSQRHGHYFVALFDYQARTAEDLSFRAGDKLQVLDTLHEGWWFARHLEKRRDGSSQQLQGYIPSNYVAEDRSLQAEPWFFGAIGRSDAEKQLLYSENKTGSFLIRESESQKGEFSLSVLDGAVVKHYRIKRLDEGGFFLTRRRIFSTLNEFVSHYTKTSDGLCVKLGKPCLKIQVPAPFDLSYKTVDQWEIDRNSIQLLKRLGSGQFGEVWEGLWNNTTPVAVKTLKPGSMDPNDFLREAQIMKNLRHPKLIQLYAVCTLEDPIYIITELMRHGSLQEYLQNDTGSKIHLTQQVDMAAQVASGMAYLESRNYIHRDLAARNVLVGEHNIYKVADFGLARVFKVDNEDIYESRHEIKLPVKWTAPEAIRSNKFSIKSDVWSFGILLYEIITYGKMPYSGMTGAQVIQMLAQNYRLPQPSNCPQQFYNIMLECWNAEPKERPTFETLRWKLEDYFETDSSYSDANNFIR

[11] = target: T9, JNK2 (Homo sapiens, UniProt P45984); test: KINOMEscan active-site competitive binding assay; conditions: slash = duplicate values
T9 construct: purchased DiscoveRx (KINOMEscan service)
T9 sequence (P45984 whole entry): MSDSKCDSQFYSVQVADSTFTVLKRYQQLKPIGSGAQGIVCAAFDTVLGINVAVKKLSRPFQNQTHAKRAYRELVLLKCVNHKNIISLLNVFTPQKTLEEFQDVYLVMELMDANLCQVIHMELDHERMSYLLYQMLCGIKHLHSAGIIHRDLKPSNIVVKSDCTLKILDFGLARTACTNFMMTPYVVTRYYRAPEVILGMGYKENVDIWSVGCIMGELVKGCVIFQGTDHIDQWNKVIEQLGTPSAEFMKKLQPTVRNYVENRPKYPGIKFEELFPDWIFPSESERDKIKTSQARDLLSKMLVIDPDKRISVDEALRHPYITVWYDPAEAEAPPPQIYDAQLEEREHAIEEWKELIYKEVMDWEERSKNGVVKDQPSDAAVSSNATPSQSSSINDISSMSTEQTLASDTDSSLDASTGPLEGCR

[12] = Plasma protein binding in vitro (Transil), mouse plasma; type: in vitro ADME
Description: as §1

[13] = target: T10, DDR2 (Homo sapiens, UniProt Q16832); test: KINOMEscan active-site competitive binding assay; conditions: slash = two separate measurements
T10 construct: purchased DiscoveRx (KINOMEscan service)
T10 sequence (Q16832 22-855): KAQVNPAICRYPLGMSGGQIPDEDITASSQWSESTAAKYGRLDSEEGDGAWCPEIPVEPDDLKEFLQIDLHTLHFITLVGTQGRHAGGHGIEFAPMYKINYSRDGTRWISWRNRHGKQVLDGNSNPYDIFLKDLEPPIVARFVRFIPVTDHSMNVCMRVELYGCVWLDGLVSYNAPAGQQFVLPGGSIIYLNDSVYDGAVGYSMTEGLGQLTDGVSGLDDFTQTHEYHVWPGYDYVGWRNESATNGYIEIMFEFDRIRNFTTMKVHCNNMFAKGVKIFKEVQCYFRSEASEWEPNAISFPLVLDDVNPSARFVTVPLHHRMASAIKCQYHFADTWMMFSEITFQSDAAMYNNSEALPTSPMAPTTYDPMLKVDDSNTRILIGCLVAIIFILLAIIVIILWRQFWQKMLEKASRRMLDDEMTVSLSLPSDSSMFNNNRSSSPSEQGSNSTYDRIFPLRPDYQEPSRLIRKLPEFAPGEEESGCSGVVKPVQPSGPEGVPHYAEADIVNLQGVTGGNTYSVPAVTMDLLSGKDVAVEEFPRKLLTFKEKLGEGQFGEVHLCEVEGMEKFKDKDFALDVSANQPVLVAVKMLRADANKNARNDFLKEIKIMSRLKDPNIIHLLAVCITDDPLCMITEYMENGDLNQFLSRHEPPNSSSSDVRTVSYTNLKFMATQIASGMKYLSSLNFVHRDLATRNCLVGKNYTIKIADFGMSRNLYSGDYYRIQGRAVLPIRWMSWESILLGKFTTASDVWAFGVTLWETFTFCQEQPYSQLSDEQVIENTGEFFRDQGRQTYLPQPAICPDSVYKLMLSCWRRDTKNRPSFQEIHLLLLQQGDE

[14] = human, male, plasma, arithmetic mean ± SD
[15] = mouse (CD‐1), male, plasma, arithmetic mean ± SD

## CNC(=O)c1cc(Oc2ccc(NC(=O)Nc3ccc(Cl)c(C(F)(F)F)c3)c(F)c2)ccn1 [Regorafenib, reference compound]
[1]
  Kd: 170 nM and 260 nM
[2]
  Kd: 67 nM and 43 nM
[3]
  Proportion of protein‐bound drug: more than 99%
  Major plasma protein to which the compound was bound: albumin
[3]; [14]
  Unbound fraction (%): 0.488 ± 0.091%
[3]; male, human, plasma, arithmetic mean ± SD
  fraction unbound: ~0.005
[4]
  Kd: 170 nM and 110 nM
[5]
  Kd: 30 nM and 27 nM
[6]
  Kd: 180 nM and 280 nM
[7]
  Kd: 90 nM and 64 nM
[8]
  Kd: 450 nM and 400 nM
[9]
  Calculated free drug concentration: 42.1 nmol/L
[10]
  Kd: 69 nM and 42 nM
[11]
  Kd: 1400 nM and 1900 nM
[12]; male, CD-1, mouse, plasma, mouse (CD‐1), arithmetic mean ± SD
  fraction unbound: ~0.006
[12]; [15]
  Unbound fraction (%): 0.575 ± 0.039%
[12]; murine plasma
  Proportion of protein‐bound drug: more than 99%
[13]
  Kd: 9.2 nM and 9.7 nM

## NC(=O)c1cc(Oc2ccc(NC(=O)Nc3ccc(Cl)c(C(F)(F)F)c3)c(F)c2)cc[n+]1[O-] [M‐5]
[1]
  Kd: 120 nM
[2]
  Kd: 86 nM
[3]
  Proportion of protein‐bound drug: more than 99%
  Unbound fraction, fold lower than that of regorafenib: approximately 10 fold
  Major plasma protein to which the compound was bound: albumin
  Unbound fraction, fold lower in human than in murine plasma: ~ 8 fold
[3]; [14]
  Unbound fraction (%): 0.053 ± 0.013%
[4]
  Kd: 77 nM
[5]
  Kd: 73 nM
[6]
  Kd: 56 nM
[7]
  Kd: 11 nM
[8]
  Kd: 89 nM
[9]
  Calculated free drug concentration: 3.4 nmol/L
[10]
  Kd: 24 nM
[11]
  Kd: 670 nM
[12]; [15]
  Unbound fraction (%): 0.412 ± 0.041%
[12]; murine plasma
  Proportion of protein‐bound drug: more than 99%
[13]
  Kd: 2.5 nM

## CNC(=O)c1cc(Oc2ccc(NC(=O)Nc3ccc(Cl)c(C(F)(F)F)c3)c(F)c2)cc[n+]1[O-] [M‐2]
[1]
  Kd: 79 nM
[2]
  Kd: 33 nM
[3]
  Proportion of protein‐bound drug: more than 99%
  Unbound fraction, fold lower than that of regorafenib: about 2.5 fold
  Major plasma protein to which the compound was bound: albumin
  Unbound fraction, fold lower in human than in murine plasma: ~ 5 fold
[3]; [14]
  Unbound fraction (%): 0.188 ± 0.004%
[4]
  Kd: 160 nM
[5]
  Kd: 48 nM
[6]
  Kd: 15 nM
[7]
  Kd: 20 nM
[8]
  Kd: 42 nM
[9]
  Calculated free drug concentration: 13.5 nmol/L
[10]
  Kd: 42 nM
[11]
  Kd: 67 nM and 44 nM
[12]; [15]
  Unbound fraction (%): 0.888 ± 0.033%
[12]; murine plasma
  Proportion of protein‐bound drug: more than 99%
  Unbound fraction, fold higher than that of regorafenib: approximately 1.5 fold
[13]
  Kd: 5.3 nM

From PMC5119973 (Cancer Medicine, 2016)
